The experiment addresses T1, Streptokinase A (Streptococcus pyogenes serotype M1, UniProt P10520).
T1 sequence (P10520 whole entry): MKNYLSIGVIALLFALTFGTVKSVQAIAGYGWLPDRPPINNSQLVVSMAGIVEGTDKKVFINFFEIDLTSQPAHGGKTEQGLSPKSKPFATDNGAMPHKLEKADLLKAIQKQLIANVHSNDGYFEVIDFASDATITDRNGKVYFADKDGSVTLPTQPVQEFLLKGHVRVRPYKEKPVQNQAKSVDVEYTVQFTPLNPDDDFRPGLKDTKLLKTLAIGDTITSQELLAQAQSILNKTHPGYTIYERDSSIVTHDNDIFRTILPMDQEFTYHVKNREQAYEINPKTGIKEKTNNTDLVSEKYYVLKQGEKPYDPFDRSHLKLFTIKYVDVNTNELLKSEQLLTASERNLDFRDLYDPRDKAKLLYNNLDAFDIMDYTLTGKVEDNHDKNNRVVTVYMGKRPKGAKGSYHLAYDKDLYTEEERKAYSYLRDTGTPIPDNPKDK
As to the kind of experiment: viability-normalized secreted streptokinase activity reduction – plasminogen activation absorbance, OD405, dose response (AID 1914).
Usually EC50 stands for the midpoint of the concentration-response curve. As to `CN(C)CCN=CC(C(=O)Nc1ccc(Cl)cc1Cl)C(=O)Nc1ccc(Cl)cc1Cl` [N~1~,N~3~-bis(2,4-dichlorophenyl)-2-({[2-(dimethylamino)ethyl]amino}methylene)malonamide], the concentration giving a half-maximal response (EC50) was greater than 150 µM.

`CCCCCCC(=O)NNC=C1C(=O)NC(=S)N(C(C)CC)C1=O` (stereo not given) [SMR000439319] showed an EC50 greater than 150 µM.

Turning to `N=C(N)C1=CC(=O)/C(=C/C=c2ccc(=C(N)N)cc2)C=C1` [(4E)-4-[2-[4-[bis(azanyl)methylidene]cyclohexa-2,5-dien-1-ylidene]ethylidene]-3-oxidanylidene-cyclohexa-1,5-diene-1-carboximidamide;2-oxidanylethanesulfonic acid], the midpoint of the response, the EC50, lay at 20 µM.

`COc1cccc(CN=Nc2cc(N3CCOCC3)ncn2)c1O` [(6E)-2-methoxy-6-[[N'-(6-morpholinopyrimidin-4-yl)hydrazino]methylene]cyclohexa-2,4-dien-1-one] gave a 50% effective concentration (EC50) greater than 150 µM.

Consider `Cc1[nH]n(-c2nc3ccccc3[nH]2)c(=O)c1Cc1ccccc1` [MLS000762809], for which the EC50 was greater than 150 µM.

On to `CCc1ccc(C2C(C#N)C(=N)C(C#N)(C#N)C3=CCC(C(C)(C)C)CC32)cc1` (stereo not given) [SMR000115124], for which the 50% effective concentration (EC50) came out at 5.84 µM.

`CCCCN1C(=O)/C(=N\NC(=O)c2ccccc2NS(=O)(=O)c2cccs2)c2ccccc21` [N-[(Z)-(1-butyl-2-oxoindol-3-ylidene)amino]-2-(thiophen-2-ylsulfonylamino)benzamide]: the 50% effective concentration (EC50) was greater than 150 µM.

For `COC(=O)/N=N/C=C1\C=[N+]([O-])c2ccccc2N1O` [MLS001333201], the 50% effective concentration (EC50) was greater than 150 µM.

Turning to `CCOc1ccc(NC(=S)NNC2=c3ccccc3=NC2=O)cc1`, the EC50 was greater than 150 µM.

`Cc1cc(C)c2c(c1)C(=NNc1ccc(C(=O)O)cc1)C(O)=N2` [SMR000592331]: the EC50 was greater than 150 µM.

`CN1c2ccsc2C(NNc2ccccc2)=CS1(=O)=O` [N-[(1-methyl-2,2-dioxo-4-thieno[3,2-c]thiazinylidene)amino]aniline] came in with an EC50 of 4.12 µM.

On to `CCC1C(c2ccccc2)NC(c2ccccc2)C(CC)C1N=O` (stereo not given) [SMR000283074], for which the EC50 turned out to be 13.3 µM.

With `O=C1C(Br)=CC([N+](=O)[O-])=C/C1=C\NNC(=O)C12CC3CCC(CC(C3)C1)C2` [SMR000414723], the EC50 was greater than 150 µM.

With `CC(N=Nc1ccc(C(=O)O)cc1)c1ccc2c(c1)Nc1ccccc1S2` (stereo not given) [MLS000759774], the EC50 was greater than 150 µM.

Take `CN(C)c1ccc(C2CC(c3ccc(Cl)cc3OC(F)F)=Nc3ncnn32)cc1` (stereo not given): the EC50 is greater than 150 µM.

For the compound `O=C1C=CC([N+](=O)[O-])=CC1/C=N/NC(=O)C(O)(c1ccccc1)c1ccccc1` (stereo not given), the concentration giving a half-maximal response (EC50) was greater than 150 µM.

`O=C(O)COc1ccc(CN=Nc2nc(Nc3ccccc3)nc(N3CCCCC3)n2)cc1` [SMR000312685] returned a concentration for a half-maximal effect (EC50) greater than 150 µM.

`N#CC1C(=N)OC2=C(CCc3ccccc32)C1c1ccccc1Cl` (stereo not given) [MLS000586146]: the EC50 was 11.9 µM.

`COc1cccc(CN=Nc2cc(C)nc(-c3ccccc3O)n2)c1O` [SMR000274167] gave a concentration giving a half-maximal response (EC50) greater than 150 µM.

Take `Cc1nn(-c2ccccc2)c(Cl)c1C1C2=C(CC(C)(C)CC2=O)OC(=N)C1C#N` (stereo not given) [2-azanyl-4-(5-chloranyl-3-methyl-1-phenyl-pyrazol-4-yl)-7,7-dimethyl-5-oxidanylidene-6,8-dihydro-4H-chromene-3-carbonitrile]: the EC50 is greater than 150 µM.

In the case of `CC(N=Nc1ccc(Cl)c(Cl)c1)c1ccc(-n2ccnc2)cc1` (stereo not given), the concentration for a half-maximal effect (EC50) was 17.2 µM.

For the compound `Cc1nn(-c2ccccc2)c(C)c1CN=Nc1nc2ccccc2[nH]1`, the EC50 is greater than 150 µM.

`O=NC(c1ccc(Cl)cc1Cl)c1ncc(C(F)(F)F)cc1Cl` (stereo not given) [MLS000540015] registered an EC50 of 35.2 µM.

With `CCCOc1ccc(C2C(C(=O)c3cc4ccccc4o3)C(=O)C(=O)N2c2cc(C)on2)cc1OC` (stereo not given) [MLS001142810], the EC50 is greater than 150 µM.

Consider `O=C1Nc2ccccc2SC1C=Nc1cccc(Cl)c1` (stereo not given), for which the EC50 was greater than 150 µM.

Regarding `Oc1cc(N(CCc2ccccc2)C(=S)Nc2ccccc2)c(O)n1-c1ccc(Br)cc1` [1-[1-(4-bromophenyl)-2,5-bis(oxidanylidene)pyrrolidin-3-yl]-3-phenyl-1-(2-phenylethyl)thiourea], a half-maximal effect (EC50) was put at 2.67 µM.

As for `O=C1C2=C3C(=C/C1=C\NNC(=O)c1ccccc1O)CCCN3CCC2` [MLS000332414], the half-maximal effective concentration (EC50) was greater than 150 µM.

`Cc1ccc(-c2nn(-c3ccccc3)cc2CN=O)cc1` [N-[[3-(4-methylphenyl)-1-phenylpyrazol-4-yl]methylidene]hydroxylamine] yielded an EC50 greater than 150 µM.

In turn, `CC(C)c1ccc2c(c1)=C(NNC(=O)c1cccc(S(=O)(=O)N3CCCCC3)c1)C(=O)N=2` [SMR000243307] came in with an EC50 greater than 150 µM.

`O=C1N=C(Nc2ccc(F)cc2)SC1=Cc1c[nH]c2ccccc12` [(5Z)-2-[(4-fluorophenyl)amino]-5-(1H-indol-3-ylmethylidene)-1,3-thiazol-4-one] showed an EC50 greater than 150 µM.

As to `CC(N=Nc1nc(N2CCCCCC2)nc(N2CCCCCC2)n1)c1ccccc1` (stereo not given) [(1E)-1-phenylethanone (4,6-diazepan-1-yl-1,3,5-triazin-2-yl)hydrazone], the 50% effective concentration (EC50) was 5.5 µM.

In turn, `CC(=O)c1cccc2c1NC(=C1Nc3ccccc3C1=O)C2=O` [(2E)-7-ethanoyl-2-(3-oxidanylidene-1H-indol-2-ylidene)-1H-indol-3-one] came in with a concentration giving a half-maximal response (EC50) of 116 µM.

The compound `COc1cccc(CN=Nc2nc(Nc3ccccc3)nc(-n3nc(C)cc3C)n2)c1O` [(6E)-6-[[2-[4-(3,5-dimethylpyrazol-1-yl)-6-phenylazanyl-1,3,5-triazin-2-yl]hydrazinyl]methylidene]-2-methoxy-cyclohexa-2,4-dien-1-one] gave an EC50 greater than 150 µM.

On to `C=c1[nH]n(-c2ccccc2)c(=O)c1=C(C=Cc1cccc(OC)c1OC)c1ccc(Br)cc1` [4-[1-(4-Bromo-phenyl)-3-(2,3-dimethoxy-phenyl)-allylidene]-5-methyl-2-phenyl-2,4-dihydro-pyrazol-3-one], for which the concentration for a half-maximal effect (EC50) is greater than 150 µM.

Consider `CNC(=Nc1cc(Cl)ccc1Cl)Sc1cc(O)n(-c2ccc(C(=O)OC)cc2)c1O` [4-[3-[[(2,5-dichloroanilino)-methyliminomethyl]thio]-2,5-dioxo-1-pyrrolidinyl]benzoic acid methyl ester], for which it took 50 µM to reach a half-maximal effect (EC50).

With `COC1=CC([N+](=O)[O-])=CC(/C=N/NC(=O)c2cc(-c3ccccc3)nc3ccccc23)C1=O` (stereo not given), the concentration giving a half-maximal response (EC50) is greater than 150 µM.

`CC(N=Nc1nc(-c2ccccc2F)nc2ccccc12)c1ccccc1O` (stereo not given) [2-(1-{[2-(2-Fluoro-phenyl)-quinazolin-4-yl]-hydrazono}-ethyl)-phenol] gave an EC50 greater than 150 µM.

Regarding `Cc1ccc(NN=C(C=O)C(=O)c2ccc(Cl)cc2)cc1` [3-(4-chlorophenyl)-2-[(4-methylphenyl)hydrazinylidene]-3-oxopropanal], a half-maximal response (EC50) required 50 µM.

In turn, `Oc1nc(Nc2ccc(Cl)cc2)sc1Cc1cc(Cl)ccc1Cl` [2-(4-chloroanilino)-5-(2,5-dichlorobenzyl)-2-thiazolin-4-one] gave an EC50 greater than 150 µM.

With `O=C(Nc1nnc(-c2ccc(Br)cc2)o1)c1cccc(-n2c(O)ccc2O)c1` [MLS001235111], the EC50 is greater than 150 µM.

The compound `Cc1ccc(Nc2nc(N=NCc3ccc4c(c3)OCO4)nc(N3CCOCC3)n2)cc1` [2-N-(1,3-benzodioxol-5-ylmethylideneamino)-4-N-(4-methylphenyl)-6-morpholin-4-yl-1,3,5-triazine-2,4-diamine] gave an EC50 of 111 µM.

Take `Cc1ccc(NC(=S)N/N=C2\C(=O)Nc3ccccc32)cc1` [MLS000760038]: the EC50 was greater than 150 µM.

As for `Fc1ccc(Br)cc1C1CC(c2ccc(Br)s2)=Nc2ncnn21` (stereo not given) [SMR000032932], the EC50 was greater than 150 µM.

In turn, `Oc1nc(N=NCc2cccs2)sc1Cc1ccc(Cl)c(Cl)c1` [5-[(3,4-dichlorophenyl)methyl]-2-[2-(thiophen-2-ylmethylidene)hydrazinyl]-4-thiazolone] displayed an EC50 greater than 150 µM.

`O=Nc1c(C2C(=O)Nc3cc(Br)ccc32)[nH]c2ccccc12` (stereo not given) [6-bromoindirubin-3-oxime] showed an EC50 of 44.9 µM.

`C=c1[nH][nH]c(=O)c1=Cc1cn(-c2ccccc2)nc1-c1ccc(Cl)cc1` [SMR000193592] had an EC50 of 4.83 µM.

`O=C1C([N+](=O)[O-])=CC(Cl)=CC1CN=Nc1ccccn1` (stereo not given) [MLS000539830] registered an EC50 of 11.1 µM.

For `O=C(N/N=C/C1C=C([N+](=O)[O-])C=CC1=O)c1cccc(NC(=O)c2cccc(Cl)c2)c1` (stereo not given), the concentration for a half-maximal effect (EC50) was greater than 150 µM.

Take `CC1=C2C(=NC3=C(C(=O)c4ccccc43)C2c2c(C)cc(C)cc2C)N(c2ccccn2)N1` (stereo not given) [SMR000263933]: the EC50 amounted to 22.2 µM.

The compound `S=C1N=C(C23CC4CC(CC(C4)C2)C3)CC(c2ccc3c(c2)OCO3)N1` (stereo not given) showed an EC50 of 22.5 µM.

The compound `O=C1N=c2ccccc2=C1NNC(=S)N1CCOCC1` [MLS000778251] yielded an EC50 greater than 150 µM.

The compound `CCCOc1ccc(C(=O)C2C(=O)C(=O)N(c3ccccn3)C2c2ccc(OC)cc2)cc1C` (stereo not given) [(4Z)-4-[hydroxy-(3-methyl-4-propoxyphenyl)methylidene]-5-(4-methoxyphenyl)-1-(2-pyridinyl)pyrrolidine-2,3-dione] returned a concentration for a half-maximal effect (EC50) of 103 µM.

On to `Cc1cccc(NC(=O)C2=C(N)C(C(=O)N3CCOCC3)/C(=N/c3c(C)cccc3C)S2)c1` (stereo not given) [3-amino-5-(2,6-dimethylphenyl)imino-N-(3-methylphenyl)-4-(morpholine-4-carbonyl)-2H-thiophene-2-carboxamide], for which the concentration giving a half-maximal response (EC50) amounted to 3.32 µM.

`O=C1C(=NNC(=S)Nc2ccccc2F)c2ccccc2N1Cc1ccccc1` [SMR000314861] had an EC50 greater than 150 µM.

In turn, `O=C(CSc1ccc(Cl)cc1)Nc1cc(=O)n(-c2ccccc2)[nH]1` [SMR000672521] returned a half-maximal effective concentration (EC50) of 9.33 µM.
